Reference: patent US12264155B2, “Compounds, pharmaceutical compositions, and methods of preparing compounds and of their use as ATR kinase inhibitors” (Repare Therapeutics Inc., priority 2018, dated 2025)
pIC50: −log10 of the molar value.

Biological target: ATR/ATRIP (Homo sapiens (Human), UniProt Q13535)
Assay: ATR/ATRIP enzymatic assay (AlphaScreen, phosphorylation of p53)
Conditions: not given

Sequence of ATR/ATRIP (Q13535 whole entry): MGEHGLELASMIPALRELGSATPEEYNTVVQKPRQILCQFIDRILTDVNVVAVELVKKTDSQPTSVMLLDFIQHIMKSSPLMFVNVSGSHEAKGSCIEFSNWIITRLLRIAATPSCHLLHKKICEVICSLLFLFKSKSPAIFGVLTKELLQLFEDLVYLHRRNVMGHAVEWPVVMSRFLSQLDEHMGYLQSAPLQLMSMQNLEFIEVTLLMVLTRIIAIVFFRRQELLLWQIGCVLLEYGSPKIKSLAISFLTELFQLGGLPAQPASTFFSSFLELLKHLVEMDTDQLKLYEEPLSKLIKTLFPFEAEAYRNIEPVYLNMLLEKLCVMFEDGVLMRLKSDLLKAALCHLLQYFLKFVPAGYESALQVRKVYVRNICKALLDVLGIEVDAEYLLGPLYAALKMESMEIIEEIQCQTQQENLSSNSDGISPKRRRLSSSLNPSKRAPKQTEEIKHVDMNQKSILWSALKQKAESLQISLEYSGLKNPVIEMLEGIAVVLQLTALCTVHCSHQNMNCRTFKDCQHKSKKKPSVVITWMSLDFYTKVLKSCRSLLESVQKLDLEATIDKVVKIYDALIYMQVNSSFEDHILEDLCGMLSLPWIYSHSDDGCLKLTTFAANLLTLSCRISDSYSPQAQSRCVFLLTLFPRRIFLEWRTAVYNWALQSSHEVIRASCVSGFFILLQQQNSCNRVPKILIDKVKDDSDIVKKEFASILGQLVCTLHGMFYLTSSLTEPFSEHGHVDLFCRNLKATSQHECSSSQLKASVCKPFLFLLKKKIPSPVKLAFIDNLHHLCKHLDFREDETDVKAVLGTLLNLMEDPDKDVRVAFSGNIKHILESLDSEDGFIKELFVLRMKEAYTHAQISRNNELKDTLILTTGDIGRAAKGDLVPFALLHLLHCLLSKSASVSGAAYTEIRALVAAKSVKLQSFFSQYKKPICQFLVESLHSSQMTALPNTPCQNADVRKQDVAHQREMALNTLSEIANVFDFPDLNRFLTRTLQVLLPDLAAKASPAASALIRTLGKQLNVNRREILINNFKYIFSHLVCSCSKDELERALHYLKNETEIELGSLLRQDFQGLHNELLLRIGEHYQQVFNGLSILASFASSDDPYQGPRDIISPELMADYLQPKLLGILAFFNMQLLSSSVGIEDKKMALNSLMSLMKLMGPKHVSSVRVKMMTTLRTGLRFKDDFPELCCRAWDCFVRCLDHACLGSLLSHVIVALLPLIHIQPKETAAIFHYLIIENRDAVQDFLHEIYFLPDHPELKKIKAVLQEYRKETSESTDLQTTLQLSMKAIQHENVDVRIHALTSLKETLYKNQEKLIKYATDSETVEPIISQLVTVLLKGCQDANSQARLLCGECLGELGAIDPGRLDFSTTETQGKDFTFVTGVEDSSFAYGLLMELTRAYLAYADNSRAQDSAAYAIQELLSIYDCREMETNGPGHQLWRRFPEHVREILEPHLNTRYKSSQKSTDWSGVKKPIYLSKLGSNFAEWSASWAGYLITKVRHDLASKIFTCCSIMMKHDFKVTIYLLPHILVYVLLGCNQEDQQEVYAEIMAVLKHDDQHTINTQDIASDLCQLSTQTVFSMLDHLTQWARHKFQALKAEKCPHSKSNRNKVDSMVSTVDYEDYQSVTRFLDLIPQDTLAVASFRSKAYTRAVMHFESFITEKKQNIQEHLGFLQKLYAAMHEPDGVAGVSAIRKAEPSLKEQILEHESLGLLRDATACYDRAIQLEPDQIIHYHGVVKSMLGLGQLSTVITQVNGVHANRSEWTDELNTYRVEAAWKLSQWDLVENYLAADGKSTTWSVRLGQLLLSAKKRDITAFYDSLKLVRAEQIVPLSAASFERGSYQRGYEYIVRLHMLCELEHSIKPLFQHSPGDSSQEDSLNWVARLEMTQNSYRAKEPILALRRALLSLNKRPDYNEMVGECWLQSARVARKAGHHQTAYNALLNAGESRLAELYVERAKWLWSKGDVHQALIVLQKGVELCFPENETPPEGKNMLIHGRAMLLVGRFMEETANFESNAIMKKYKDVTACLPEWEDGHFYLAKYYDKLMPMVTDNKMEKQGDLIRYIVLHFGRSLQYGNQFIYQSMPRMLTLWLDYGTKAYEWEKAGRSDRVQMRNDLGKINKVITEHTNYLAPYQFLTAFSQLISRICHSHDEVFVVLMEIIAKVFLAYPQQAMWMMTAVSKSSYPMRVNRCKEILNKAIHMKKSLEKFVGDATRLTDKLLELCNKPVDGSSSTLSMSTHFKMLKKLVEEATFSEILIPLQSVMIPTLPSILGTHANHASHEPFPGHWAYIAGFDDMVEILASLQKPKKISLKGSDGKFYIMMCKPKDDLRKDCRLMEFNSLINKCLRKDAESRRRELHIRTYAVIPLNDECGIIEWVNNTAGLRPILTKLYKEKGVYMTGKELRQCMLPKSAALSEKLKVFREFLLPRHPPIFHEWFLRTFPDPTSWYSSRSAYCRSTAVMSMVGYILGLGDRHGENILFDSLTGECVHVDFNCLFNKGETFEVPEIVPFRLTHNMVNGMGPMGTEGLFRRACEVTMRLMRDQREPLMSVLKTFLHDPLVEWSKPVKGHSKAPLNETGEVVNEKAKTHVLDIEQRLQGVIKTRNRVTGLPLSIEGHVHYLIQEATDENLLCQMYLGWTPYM
Sequence of ATR/ATRIP (Q8WXE1 whole entry partner): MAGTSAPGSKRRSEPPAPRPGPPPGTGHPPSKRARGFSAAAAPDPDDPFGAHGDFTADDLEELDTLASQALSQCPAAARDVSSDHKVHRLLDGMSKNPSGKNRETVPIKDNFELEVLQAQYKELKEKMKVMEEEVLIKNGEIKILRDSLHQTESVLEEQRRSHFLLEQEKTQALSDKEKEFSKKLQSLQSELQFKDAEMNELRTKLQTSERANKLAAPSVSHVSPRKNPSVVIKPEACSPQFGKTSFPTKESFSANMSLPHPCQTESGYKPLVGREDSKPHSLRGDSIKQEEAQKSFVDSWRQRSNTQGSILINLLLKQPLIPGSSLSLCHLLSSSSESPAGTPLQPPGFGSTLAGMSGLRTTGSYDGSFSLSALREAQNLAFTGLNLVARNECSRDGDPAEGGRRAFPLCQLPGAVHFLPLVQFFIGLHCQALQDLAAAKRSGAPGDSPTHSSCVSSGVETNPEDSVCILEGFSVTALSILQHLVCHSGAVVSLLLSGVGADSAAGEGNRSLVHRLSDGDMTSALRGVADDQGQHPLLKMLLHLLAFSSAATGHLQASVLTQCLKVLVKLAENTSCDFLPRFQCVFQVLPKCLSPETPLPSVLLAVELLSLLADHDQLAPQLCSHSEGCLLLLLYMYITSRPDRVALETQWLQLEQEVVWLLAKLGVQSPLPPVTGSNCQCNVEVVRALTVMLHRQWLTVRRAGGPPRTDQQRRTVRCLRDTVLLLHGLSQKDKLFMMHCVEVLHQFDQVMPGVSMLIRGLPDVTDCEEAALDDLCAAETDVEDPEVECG

| pIC50 | Structure (SMILES) |
| --- | --- |
| 6.35 | C[C@@H]1COCCN1c1cc(C(C)(C)C#N)c2cnn(Cc3ccn[nH]3)c2n1 [Compound 66] |

Same assay, conditions: read-out: ATR IC50; recombinant ATR/ATRIP 0.63 nM, 25 nM GST-p53, 3 μM ATP, 1 hour room temperature

| Structure (SMILES) | pIC50 |
| --- | --- |
| C[C@@H]1COCCN1c1cc(C(C)(C)O)c2cnn(-c3cc[nH]n3)c2n1 [Compound 2, (R)-2-(6-(3-methylmorpholino)-1-(1H-pyrazol-3-yl)-1H-pyrazolo[3,4-b]pyridin-4-yl)propan-2-ol] | 7.40 |
| C[C@@H]1COCCN1c1cc(C(C)(C)C(N)=O)c2cnn(-c3cc[nH]n3)c2n1 [Compound 4, (R)-2-methyl-2-(6-(3-methylmorpholino)-1-(1H-pyrazol-3-yl)-1H-pyrazolo[3,4-b]pyridin-4-yl)propanamide] | 7.25 |
| C[C@@H]1COCCN1c1cc(C2(C#N)CCCCC2)c2cnn(-c3cc[nH]n3)c2n1 [Compound 5, (R)-1-(6-(3-methylmorpholino)-1-(1H-pyrazol-3-yl)-1H-pyrazolo[3,4-b]pyridin-4-yl)cyclohexane-1-carbonitrile] | 8.52 |
| Cc1cn(-c2cc[nH]n2)c2nc(N3CCOC[C@H]3C)cc(C(C)(C)C#N)c12 [Compound 7, (R)-2-methyl-2-(3-methyl-6-(3-methylmorpholino)-1-(1H-pyrazol-3-yl)-1H-pyrrolo[2,3-b]pyridin-4-yl)propanenitrile] | 6.39 |
| Cc1ccncc1-c1cc(N2CCOC[C@H]2C)nc2c1ccn2-c1cc[nH]n1 [Compound 9] | 7.43 |
| C[C@@H]1COCCN1c1cc(C(C)(C)C#N)c2ccn(-c3cc[nH]n3)c2n1 [Compound 11] | 7.00 |
| C[C@@H]1COCCN1c1cc(C(C)(C)C(N)=O)c2ccn(-c3cc[nH]n3)c2n1 [Compound 12] | 6.42 |
| C[C@@H]1COCCN1c1cc(-c2ccncn2)c2ccn(-c3cc[nH]n3)c2n1 [Compound 13] | 5.78 |
| C[C@@H]1COCCN1c1cc(-c2ccncc2)c2ccn(-c3cc[nH]n3)c2n1 [Compound 15] | 5.73 |
| COc1ccc(-c2cc(N3CCOC[C@H]3C)nc3c2ccn3-c2cc[nH]n2)cn1 [Compound 16] | 5.82 |
| C[C@@H]1COCCN1c1cc(C(=O)N2CCOCC2)c2ccn(-c3cc[nH]n3)c2n1 [Compound 18] | 5.71 |
| C[C@@H]1COCCN1c1cc(C(=O)N(C)Cc2ccccc2)c2ccn(-c3cc[nH]n3)c2n1 [Compound 19] | 6.27 |
| C[C@@H]1COCCN1c1cc(-c2ccccc2[S+](C)[O-])c2ccn(-c3cc[nH]n3)c2n1 (stereo partly shown) [Compound 20] | 6.64 |
| C[C@@H]1COCCN1c1cc(N(C)c2cccnc2)c2ccn(-c3cc[nH]n3)c2n1 [Compound 22] | 6.06 |
| C[C@@H]1COCCN1c1cc(C(N)=O)c2cnn(-c3cc[nH]n3)c2n1 [Compound 23] | 6.58 |
| C[C@@H]1COCCN1c1cc(C(C)(C)C#N)c2cnn(-c3cc[nH]n3)c2n1 [Compound 24] | 8.22 |
| C[C@@H]1COCCN1c1cc(C2(C#N)CCC2)c2cnn(-c3cc[nH]n3)c2n1 [Compound 27] | 6.87 |
| C[C@@H]1COCCN1c1cc(C2(C#N)CC2)c2ccn(-c3cc[nH]n3)c2n1 [Compound 29] | 6.24 |

| Structure (SMILES) | pIC50 |
| --- | --- |
| C[C@@H]1COCCN1c1cc(CC#N)c2cnn(-c3cc[nH]n3)c2n1 [Compound 32] | 7.27 |
| C[C@@H]1COCCN1c1cc(-c2ccnn2C)c2ccn(-c3cc[nH]n3)c2n1 [Compound 34] | 6.35 |
| Cc1c[nH]nc1-n1ccc2c(C3(S(C)(=O)=O)CC3)cc(N3CCOC[C@H]3C)nc21 [Compound 36] | < 6.00 |
| C[C@@H]1COCCN1c1cc(C2(S(C)(=O)=O)CC2)c2ccn(-c3cn[nH]c3C(F)(F)F)c2n1 [Compound 37] | < 6.00 |
| COc1cc(-c2cc(N3CCOC[C@H]3C)nc3c2ccn3-c2cc[nH]n2)ccn1 [Compound 39] | < 5.00 |
| C[C@@H]1COCCN1c1cc(-c2cccs2)c2ccn(-c3cc[nH]n3)c2n1 [Compound 41] | < 5.00 |
| C[C@@H]1COCCN1c1cc(S(C)(=O)=O)c2cnn(-c3cc[nH]n3)c2n1 [Compound 44] | 7.57 |
| C[C@@H]1COCCN1c1cc(S(=O)(=O)C2CC2)c2cnn(-c3cc[nH]n3)c2n1 [Compound 45] | 8.30 |
| C[C@@H]1COCCN1c1cc(S(=O)(=O)c2ccccc2)c2cnn(-c3cc[nH]n3)c2n1 [Compound 50] | 6.94 |
| C[C@@H]1COCCN1c1cc(N(C)S(C)(=O)=O)c2cnn(-c3cc[nH]n3)c2n1 [Compound 52] | 8.10 |
| C[C@@H]1COCCN1c1cc(N2CCCCS2(=O)=O)c2cnn(-c3cc[nH]n3)c2n1 [Compound 53] | 8.05 |
| C[C@@H]1COCCN1c1cc(N2CCCS2(=O)=O)c2cnn(-c3cc[nH]n3)c2n1 [Compound 54] | 7.64 |
| C[C@@H]1COCCN1c1cc(C2(O)CCN(C)CC2)c2cnn(-c3cc[nH]n3)c2n1 [Compound 60] | 7.43 |
| Cc1ccnc(-n2ncc3c(C(C)(C)O)cc(N4CCOC[C@H]4C)nc32)c1 [Compound 64] | 7.04 |
| C[C@@H]1COCCN1c1cc(C(C)(C)O)c2cnn(-c3cccc(N)n3)c2n1 [Compound 65] | 6.98 |
| C[C@@H]1COCCN1c1cc(C(C)(C)O)c2cnn(-c3cccnn3)c2n1 [Compound 67] | 6.70 |
| C[C@@H]1COCCN1c1cc(C(C)(C)C#N)c2cnn(-c3n[nH]cc3F)c2n1 [Compound 68] | 5.87 |

Now from value to compound:

| pIC50 | Structure (SMILES) |
| --- | --- |
| 6.37 | C[C@@H]1COCCN1c1cc(-c2ccccc2S(C)(=O)=O)c2ccn(-c3cc[nH]n3)c2n1 [Compound 6, (R)-3-methyl-4-(4-(2-(methylsulfonyl)phenyl)-1-(1H-pyrazol-3-yl)-1H-pyrrolo[2,3-b]pyridin-6-yl)morpholine] |
| 5.80 | C[C@@H]1COCCN1c1cc(C(C)(C)O)c2ccn(-c3cc[nH]n3)c2n1 [Compound 10] |
| 5.94 | Cc1ccc(-c2cc(N3CCOC[C@H]3C)nc3c2ccn3-c2cc[nH]n2)nn1 [Compound 14] |
| 5.92 | C[C@@H]1COCCN1c1cc(Nc2cccnc2)c2ccn(-c3cc[nH]n3)c2n1 [Compound 17] |
| 6.08 | COc1ccc(-c2cc(N3CCOC[C@H]3C)nc3c2c(C)cn3-c2cc[nH]n2)cn1 [Compound 21] |
| 8.40 | C[C@@H]1COCCN1c1cc(C2(C#N)CCCC2)c2cnn(-c3cc[nH]n3)c2n1 [Compound 28] |
| 6.55 | COC(C)(C)c1cc(N2CCOC[C@H]2C)nc2c1ccn2-c1cc[nH]n1 [Compound 30] |
| 5.85 | CC(C)c1cc(N2CCOC[C@H]2C)nc2c1ccn2-c1cc[nH]n1 [Compound 31] |
| < 6.00 | C[C@@H]1COCCN1c1cc(C2(S(C)(=O)=O)CC2)c2ccn(-c3cn[nH]c3)c2n1 [Compound 38] |
| 7.49 | C[C@@H]1COCCN1c1cc(I)c2cnn(-c3ccn[nH]3)c2n1 [Compound 42] |
| 8.30 | C[C@@H]1COCCN1c1cc(-c2ccccc2F)c2cnn(-c3ccn[nH]3)c2n1 [Compound 48] |
| 7.96 | C[C@@H]1COCCN1c1cc(C(C)(C#N)C2COC2)c2cnn(-c3cc[nH]n3)c2n1 (stereo partly shown) [Compound 49] |
| 6.85 | COc1cc(N2CCOC[C@H]2C)nc2c1cnn2-c1cc[nH]n1 [Compound 51] |
| 8.00 | C[C@@H]1COCCN1c1cc(C2(O)CCC(C)(C#N)CC2)c2cnn(-c3cc[nH]n3)c2n1 (stereo partly shown) [Compound 59] |
| 8.70 | C[C@@H]1COCCN1c1cc(C2(O)CCC3(CC2)CSC3)c2cnn(-c3cc[nH]n3)c2n1 [Compound 61] |
| 7.96 | C[C@@H]1COCCN1c1cc(C(C)(C)O)c2cnn(-c3ccccn3)c2n1 [Compound 63] |
